# Results from patent US10077265B2, “Substituted oxopyridine derivatives” (BAYER PHARMA AKTIENGESELLSCHAFT, priority 2014, dated 2018).
# pIC50: −log10 of the molar value.
# Molecular target: human plasma kallikrein (Homo sapiens (Human), UniProt P03952)
# Experiment: Determination of the plasma kallikrein activity (fluorogenic peptide substrate)
# Assay type: biochemical
# Details: plasma kallikrein from Kordia, substrate H-Pro-Phe-Arg-AMC, 30 min at 22° C.
# Description: To determine the plasma kallikrein inhibition of the substances according to the invention, a biochemical test system is used which utilizes the reaction of a peptidic plasma kallikrein substrate to determine the enzymatic activity of human plasma kallikrein. Here, plasma kallikrein cleaves from the peptic plasma kallikrein substrate the C-terminal aminomethylcoumarin (AMC), the fluorescence of which is measured. The determinations are carried out in microtitre plates.
# 1 μl of the diluted substance solutions is placed into each of the wells of white microtitre plates from Greiner (384 wells). 20 μl of assay buffer (50 mM Tris/HCl pH 7.4; 100 mM sodium chloride solution; 5 mM of calcium chloride solution; 0.1% of bovine serum albumin) and 20 μl of plasma kallikrein from Kordia (0.6 nM in assay buffer) are then added successively. After 15 min of incubation, the enzyme reaction is started by addition of 20 μl of the substrate H-Pro-Phe-Arg-AMC dissolved in assay buffer (10 μM in assay buffer) from Bachem, the mixture is incubated at room temperature (22° C.) for 30 min and fluorescence is then measured (excitation: 360 nm, emission: 460 nm). The measured emissions of the test batches with test substance are compared to those of control batches without test substance (only dimethyl sulphoxide instead of test substance in dimethyl sulphoxide), and IC50 values are calculated from the concentration/activity relationships.
# Sequence of human plasma kallikrein (P03952 391-638): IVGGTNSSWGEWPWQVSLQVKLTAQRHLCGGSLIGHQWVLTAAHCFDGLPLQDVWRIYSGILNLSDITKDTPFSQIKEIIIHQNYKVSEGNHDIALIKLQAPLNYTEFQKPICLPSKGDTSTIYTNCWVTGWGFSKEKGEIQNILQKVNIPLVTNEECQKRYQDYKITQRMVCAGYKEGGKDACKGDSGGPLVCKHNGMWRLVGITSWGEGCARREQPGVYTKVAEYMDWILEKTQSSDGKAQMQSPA
# Sequence of human plasma kallikrein (P03952 20-390 partner): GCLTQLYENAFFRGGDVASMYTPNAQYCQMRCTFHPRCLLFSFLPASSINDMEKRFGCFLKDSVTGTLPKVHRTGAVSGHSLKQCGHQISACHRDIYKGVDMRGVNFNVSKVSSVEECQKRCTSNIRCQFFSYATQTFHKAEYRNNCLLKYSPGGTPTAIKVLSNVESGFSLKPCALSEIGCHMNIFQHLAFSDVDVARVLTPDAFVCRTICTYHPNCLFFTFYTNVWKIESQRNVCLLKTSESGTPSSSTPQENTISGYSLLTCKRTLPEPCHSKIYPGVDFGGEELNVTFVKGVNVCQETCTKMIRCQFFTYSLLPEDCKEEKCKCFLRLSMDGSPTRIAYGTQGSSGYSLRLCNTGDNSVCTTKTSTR
row,Compound,pIC50
1,"CCC(C(=O)Nc1ccn2ncc(C(=O)O)c2c1)n1cc(OC)c(-c2cc(Cl)ccc2C#N)cc1=O (racemic) [Example 1, 5-({2-[4-(5-Chloro-2-cyanophenyl)-5-methoxy-2-oxopyridin-1(2H)-yl]butanoyl}amino)pyrazolo-[1,5-a]pyridine-3-carboxylic acid (racemate)]",8.30
2,"COCCC(C(=O)Nc1ccn2ncc(C(=O)N(C)C)c2c1)n1cc(OC)c(-c2cc(Cl)ccc2C#N)cc1=O (racemic) [Example 6, 5-({2-[4-(5-Chloro-2-cyanophenyl)-5-methoxy-2-oxopyridin-1(2H)-yl]-4-methoxybutanoyl}amino)-N,N-dimethylpyrazolo[1,5-a]pyridine-3-carboxamide (racemate)]",7.74
3,"CCCNC(=O)c1cnn2ccc(NC(=O)C(CCOC)n3cc(OC)c(-c4cc(Cl)ccc4C#N)cc3=O)cc12 (racemic) [Example 7, 5-({2-[4-(5-Chloro-2-cyanophenyl)-5-methoxy-2-oxopyridin-1(2H)-yl]-4-methoxybutanoyl}amino)-N-propylpyrazolo[1,5-a]pyridine-3-carboxamide (racemate)]",8.19
4,"COCCC(C(=O)Nc1ccn2ncc(C(=O)NCCOC(F)(F)F)c2c1)n1cc(OC)c(-c2cc(Cl)ccc2C#N)cc1=O (racemic) [Example 10, 5-({2-[4-(5-Chloro-2-cyanophenyl)-5-methoxy-2-oxopyridin-1(2H)-yl]-4-methoxybutanoyl}amino)-N-[2-(trifluoromethoxy)ethyl]pyrazolo[1,5-a]pyridine-3-carboxamide (racemate)]",8.02
5,"COCCC(C(=O)Nc1ccn2ncc(C(=O)NCCC(F)(F)F)c2c1)n1cc(OC)c(-c2cc(Cl)ccc2C#N)cc1=O (racemic) [Example 11, 5-({2-[4-(5-Chloro-2-cyanophenyl)-5-methoxy-2-oxopyridin-1(2H)-yl]-4-methoxybutanoyl}amino)-N-(3,3,3-trifluoropropyl)pyrazolo[1,5-a]pyridine-3-carboxamide (racemate)]",8.18
6,"COCCC(C(=O)Nc1ccn2ncc(C(=O)NCC(F)(F)F)c2c1)n1cc(OC)c(-c2cc(Cl)ccc2C#N)cc1=O (racemic) [Example 12, 5-({2-[4-(5-Chloro-2-cyanophenyl)-5-methoxy-2-oxopyridin-1(2H)-yl]-4-methoxybutanoyl}amino)-N-(2,2,2-trifluoroethyl)pyrazolo[1,5-a]pyridine-3-carboxamide (racemate)]",8.30
7,"COCCC(C(=O)Nc1ccn2ncc(C(=O)NCCCO)c2c1)n1cc(OC)c(-c2cc(Cl)ccc2C#N)cc1=O (racemic) [Example 13, 5-({2-[4-(5-Chloro-2-cyanophenyl)-5-methoxy-2-oxopyridin-1(2H)-yl]-4-methoxybutanoyl}amino)-N-(3-hydroxypropyl)pyrazolo[1,5-a]pyridine-3-carboxamide (racemate)]",8.28

# Stronger by pIC50, values ahead:
row,pIC50,Compound
1,8.42,"COCCNC(=O)c1cnn2ccc(NC(=O)C(CCOC)n3cc(OC)c(-c4cc(Cl)ccc4C#N)cc3=O)cc12 (racemic) [Example 8, 5-({2-[4-(5-Chloro-2-cyanophenyl)-5-methoxy-2-oxopyridin-1(2H)-yl]-4-methoxybutanoyl}amino)-N-(2-methoxyethyl)pyrazolo[1,5-a]pyridine-3-carboxamide (racemate)]"
2,8.42,"COCCC(C(=O)Nc1ccn2ncc(C(=O)NCCO)c2c1)n1cc(OC)c(-c2cc(Cl)ccc2C#N)cc1=O (racemic) [Example 14, 5-({2-[4-(5-Chloro-2-cyanophenyl)-5-methoxy-2-oxopyridin-1(2H)-yl]-4-methoxybutanoyl}amino)-N-(2-hydroxyethyl)pyrazolo[1,5-a]pyridine-3-carboxamide (racemate)]"
3,8.52,"COCCCNC(=O)c1cnn2ccc(NC(=O)C(CCOC)n3cc(OC)c(-c4cc(Cl)ccc4C#N)cc3=O)cc12 (racemic) [Example 9, 5-({2-[4-(5-Chloro-2-cyanophenyl)-5-methoxy-2-oxopyridin-1(2H)-yl]-4-methoxybutanoyl}amino)-N-(3-methoxypropyl)pyrazolo[1,5-a]pyridine-3-carboxamide (racemate)]"
4,8.60,"COCCC(C(=O)Nc1ccn2ncc(C(=O)O)c2c1)n1cc(OC)c(-c2cc(Cl)ccc2C#N)cc1=O (racemic) [Example 2, 5-({2-[4-(5-Chloro-2-cyanophenyl)-5-methoxy-2-oxopyridin-1(2H)-yl]-4-methoxybutanoyl}-amino)pyrazolo[1,5-a]pyridine-3-carboxylic acid (racemate)]"
